Measured values as given in ChEMBL document CHEMBL1201862, “PubChem BioAssay data set” (2004).
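The compound was tested at five concentrations on cells cultured in 96-well plates, with a 48-hour exposure period. GI50 marks 50% less growth.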 Active and inactive are the calls of the source. No stated cut-off is given here; in the data, active = GI50 up to about 1.1 µM and inactive = higher.

Experiments:
Assay in all cases: NCI-60 cell line screen, 48 h
[1] = tested on: SNB-19
[2] = tested on: SR
[3] = tested on: OVCAR-4
[4] = tested on: Hs-578T
[5] = tested on: MOLT-4
[6] = tested on: LOX IMVI
[7] = tested on: MDA-N
[8] = tested on: NCI-H522
[9] = tested on: M14
[10] = tested on: SK-MEL-5
[11] = tested on: DU-145
[12] = tested on: HT-29
[13] = tested on: UACC-257
[14] = tested on: A549
[15] = tested on: SF-539
[16] = tested on: NCI-H460
[17] = tested on: EKVX
[18] = tested on: HCT-15
[19] = tested on: U-251
[20] = tested on: RPMI-8226

Structure (SMILES)	GI50 [1]	GI50 [2]	GI50 [3]	GI50 [4]	GI50 [5]	GI50 [6]	GI50 [7]	GI50 [8]	GI50 [9]	GI50 [10]	GI50 [11]	GI50 [12]	GI50 [13]	GI50 [14]	GI50 [15]	GI50 [16]	GI50 [17]	GI50 [18]	GI50 [19]	GI50 [20]
CC1OC(OC2C(O[C@H]3CC[C@@]4(C)C(=CC[C@H]5[C@@H]6C[C@@H]7O[C@]8(CC[C@H](C)CN8)[C@@H](C)[C@@H]7[C@@]6(C)CC[C@@H]54)C3)OC(CO)C(O)C2OC2OC(CO)C(O)C(O)C2O)C(O)C(O)C1O (stereo partly specified)	20.7 µM (inactive)	29 µM (inactive)	19.8 µM (inactive)	14.7 µM (inactive)	18.9 µM (inactive)	28.3 µM (inactive)	20.7 µM (inactive)	12.8 µM (inactive)	18.4 µM (inactive)	19.2 µM (inactive)	19.4 µM (inactive)	17.8 µM (inactive)	18.2 µM (inactive)	18.1 µM (inactive)	16.7 µM (inactive)	17.8 µM (inactive)	16.5 µM (inactive)	16.7 µM	37.2 µM (inactive)	–
Cc1c(O)c(C)c2c(C)cn(C(=O)C(C)(C)C)c2c1C	24.8 µM (inactive)	–	12.6 µM (inactive)	28.4 µM (inactive)	23 µM (inactive)	35 µM (inactive)	21.2 µM (inactive)	23.7 µM (inactive)	16.7 µM (inactive)	14.7 µM (inactive)	20.8 µM (inactive)	17.3 µM (inactive)	–	22.9 µM (inactive)	16.4 µM (inactive)	29.5 µM (inactive)	20 µM (inactive)	21.8 µM	27.3 µM (inactive)	29.6 µM (inactive)
O=C(/C=C/c1ccccc1)CCC1C(=O)NC(=O)NC1=O	> 100 µM (inactive)	–	> 100 µM (inactive)	> 100 µM (inactive)	35.7 µM (inactive)	> 100 µM (inactive)	> 100 µM (inactive)	> 100 µM (inactive)	> 100 µM (inactive)	> 100 µM (inactive)	> 100 µM (inactive)	> 100 µM (inactive)	> 100 µM (inactive)	> 100 µM (inactive)	> 100 µM (inactive)	> 100 µM (inactive)	> 100 µM (inactive)	> 100 µM	> 100 µM (inactive)	43.4 µM (inactive)
